Each structure is given as a SMILES string.

This assay concerns the target T1, Progesterone Receptor (PR) (Homo sapiens, UniProt P06401).
T1 construct: endogenous in cells; host or cells: T47D human breast mammary carcinoma cells
T1 sequence (P06401 1-933): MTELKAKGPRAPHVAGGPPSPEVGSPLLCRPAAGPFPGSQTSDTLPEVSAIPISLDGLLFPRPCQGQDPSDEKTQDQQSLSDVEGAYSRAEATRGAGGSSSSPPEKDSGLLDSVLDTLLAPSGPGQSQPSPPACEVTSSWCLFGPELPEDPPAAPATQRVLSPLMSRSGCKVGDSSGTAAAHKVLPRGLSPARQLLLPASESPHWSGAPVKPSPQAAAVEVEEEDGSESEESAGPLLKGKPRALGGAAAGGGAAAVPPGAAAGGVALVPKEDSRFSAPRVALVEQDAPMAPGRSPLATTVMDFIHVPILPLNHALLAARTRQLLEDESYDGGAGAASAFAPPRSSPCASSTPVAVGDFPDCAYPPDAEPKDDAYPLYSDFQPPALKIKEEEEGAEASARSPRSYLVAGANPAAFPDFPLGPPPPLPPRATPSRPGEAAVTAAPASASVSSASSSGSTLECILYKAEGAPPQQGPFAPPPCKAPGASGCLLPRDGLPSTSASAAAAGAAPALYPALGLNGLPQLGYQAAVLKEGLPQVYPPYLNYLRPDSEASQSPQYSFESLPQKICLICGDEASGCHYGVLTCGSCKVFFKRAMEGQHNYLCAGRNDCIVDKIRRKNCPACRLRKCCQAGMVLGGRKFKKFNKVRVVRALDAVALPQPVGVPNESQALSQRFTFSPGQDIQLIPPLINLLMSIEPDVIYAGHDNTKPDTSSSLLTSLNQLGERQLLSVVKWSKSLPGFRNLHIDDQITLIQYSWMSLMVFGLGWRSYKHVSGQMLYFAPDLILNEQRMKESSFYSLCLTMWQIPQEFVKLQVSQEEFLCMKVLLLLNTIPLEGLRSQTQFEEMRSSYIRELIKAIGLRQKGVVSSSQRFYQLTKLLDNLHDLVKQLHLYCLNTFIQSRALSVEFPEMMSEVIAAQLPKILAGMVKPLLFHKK
Briefly: In vitro functional assay for progesterone receptor (PR) antagonists: inhibition of progesterone-induced alkaline phosphatase expression in T47D cells. It counts as cell-based. Conditions: antagonist format, 5 nM progesterone, Ki calculated from IC50 with the Cheng-Prusoff equation. From the text: 1.0 In vitro Functional Assay for Progesterone Receptor (PR) Antagonists, Agonists and Modulators
The assay for PR antagonism takes advantage of the extensively reported modulation of alkaline phosphatase (AP) expression in human breast T47D mammary carcinoma cells {Beck et al., D. P. (1993). The progesterone antagonist RU486 acquires agonist activity upon stimulation of cAMP signalling pathways. Proc Natl Acad Sci USA 90, 4441-4445; Fensome et al. (2002). New progesterone receptor antagonists: 3,3-disubstituted-5-aryloxindoles. Bioorg Med Chem Lett 12, 3487-3490; Zhang et al., (2002a). 6-Aryl-1,4-dihydro-benzo d1,3oxazin-2-ones: a novel class of potent, selective, and orally active nonsteroidal progesterone receptor antagonists. Journal of Medicinal Chemistry 45, 4379-4382; Zhang et al., (2003). Novel 6-aryl-1,4-dihydrobenzo d oxazine-2-thiones as potent, selective, and orally active nonsteroidal progesterone receptor agonists. Bioorganic & Medicinal Chemistry Letters 13, 1313-1316; Zhang et al., (2002b). Potent nonsteroidal progesterone receptor agonists: synthesis and SAR study of 6-aryl benzoxazines. Bioorganic & Medicinal Chemistry Letters 12, 787-790; Zhang, Z. et al., (2000). In vitro characterization of trimegestone: a new potent and selective progestin. Steroids 65, 637-643}. […] In the absence of progesterone any agonist activity is also observed as an induction of AP activity. By running the assay in two formats (+/−progesterone (P4)), compounds behaving as PR antagonists, agonists, partial agonists or modulators with mixed agonist/antagonist activity can be identified.
Briefly, T47D cells are grown by propagating in DMEM with phenol red+10% FCS+2 mM Glutamine at 37° C./5% CO2. At 70-80% confluence, the media is exchanged for phenol red free DMEM+5% CS-FCS (Assay media). Cells are incubated overnight in assay media then harvested and frozen in assay media containing 10% DMSO at 1.5e7 cells/mL in 2 mL aliquots using a Planer and immediately stored in liquid nitrogen. Vials are removed from liquid nitrogen storage and immediately thawed in a water bath at 37° C. The cell suspension is added dropwise to 20 mL of assay media, then the tube centrifuged at 1000 rpm for 4 minutes, the supernatant is discarded and the pellet re-suspended in 20 mL assay media. T47D cells are then plated at 8750 cells/well in 35 μL assay media in sufficient white solid 384 well TC plates for the assay. For the agonist format assay a further 10 μL of assay media is added to each well. These plates are then cultured for 3-6 hours at 37° C./5% CO2 before compound addition.
Test substances are prepared by in 100% DMSO, half log concentrations from 4 mM in 384 well plates 5 μL/well (referred to here as ‘grandmother plates’). Progesterone is 100 μM made up in ethanol and PBS (i.e. add 1 mL ethanol to progesterone initially to help dissolving) and stored in 0.5-1 mL aliquots at −20° C.
Using a multidrop (Thermolabsystems), 60 μL/well of buffer is added to a 384 well plate—this will be the ‘mother plate’. _Add 45 μL well buffer to grandmother plate using the multidrop (=400 μM 10% DMSO dilution). Mixed and spun to remove air bubbles. • 20 μL is taken from the grandmother plate (400 μM 10% DMSO) and added to the mother plate (=100 μM 2.5% DMSO). Mixed and spun to remove air bubbles Preparation of Max/Min:
Antagonist Min: (Checker Pattern on Plate Map) 1 μM RU-486 (FAC 0.1 μM) • 50 μL of 0.2 mM RU-486 • 10 mL Diluent Addition of Test Substance to Cell Plates • The PlateMate Plus was used to add 5 μL MAX/MIN to cell plates • Then 5 μL test substances are added from the mother plate (after removing max/min PlateMate tips: columns 1 and 24)
Addition of Agonist (5 nM Progesterone FAC) for Antagonist Format Only
25 nM progesterone in assay media is prepared from 100 μM stock (12.5 μL progesterone/50 mL media), from which 10 μL per well is transferred to the assay plate using the PlateMate Plus (already containing cells & compound). […]
For `Cc1c(-c2ccc(C#N)cc2)nn(C2CCOC2)c1C(=O)NC[C@H](C)O` (mixture of isomers) [Example 78, 3-(4-Cyanophenyl)-N-[(2S)-2-hydroxypropyl]-4-methyl-1-(tetrahydrofuran-3-yl)-1H-pyrazole-5-carboxamide], the Ki is 71.6 nM. Take `CCc1c(-c2ccc(C#N)cc2)nn(C(C)CC)c1C(=O)NC[C@@H](C)O` (mixture of isomers) [Example 107, 1-sec-Butyl-3-(4-cyanophenyl)-4-ethyl-N-[(2R)-2-hydroxypropyl]-1H-pyrazole-5-carboxamide]: the Ki is 63 nM. Regarding `CC(C)n1nc(-c2ccc(C#N)cc2)c(C2CC2)c1C(=O)NCC1CCCO1` (racemic) [Example 36, (+/−)-3-(4-Cyanophenyl)-4-cyclopropyl-1-isopropyl-N-(tetrahydrofuran-2-ylmethyl)-1H-pyrazole-5-carboxamide], the Ki was 12 nM. For the molecule `CC(NC(=O)c1c(C2CC2)c(-c2ccc(C#N)cc2)nn1C(C)C)c1cnn(C)c1` (racemic) [Example 39], the Ki was 17.8 nM. Turning to `CC(C)n1nc(-c2ccc(C#N)cc2)c(C2CC2)c1C(=O)NC1CCCOC1` (racemic) [Example 40, (+/−)-3-(4-Cyanophenyl)-4-cyclopropyl-1-isopropyl-N-(tetrahydro-2H-pyran-3-yl)-1H-pyrazole-5-carboxamide], the Ki is 17.5 nM. `CC(C)n1nc(-c2ccc(C#N)cc2)c(C2CC2)c1C(=O)NC1CCC(=O)N(C)C1` (racemic) [Example 41, (+/−)-3-(4-Cyanophenyl)-4-cyclopropyl-1-isopropyl-N-(1-methyl-6-oxopiperidin-3-yl)-1H-pyrazole-5-carboxamide]: the Ki was 25 nM. For `CC(Cn1cccn1)NC(=O)c1c(C2CC2)c(-c2ccc(C#N)cc2)nn1C(C)C` (racemic) [Example 44, (+/−)-3-(4-Cyanophenyl)-4-cyclopropyl-1-isopropyl-N-[1-methyl-2-(1H-pyrazol-1-yl)ethyl]-1H-pyrazole-5-carboxamide], the Ki was 40.8 nM.

`CC(C)n1nc(-c2ccc(C#N)cc2)c(C2CC2)c1C(=O)NC1CNC(=O)C1` (racemic) [Example 45, (+/−)-3-(4-Cyanophenyl)-4-cyclopropyl-1-isopropyl-N-[(3R)-5-oxopyrrolidin-3-yl]-1H-pyrazole-5-carboxamide]: the inhibitory constant (Ki) is 104 nM. In the case of `CC(C)n1nc(-c2ccc(C#N)cc2)c(C2CC2)c1C(=O)NC1CCS(=O)(=O)C1` (racemic) [Example 57, (+/−)-3-(4-Cyanophenyl)-4-cyclopropyl-N-(1,1-dioxidotetrahydro-3-thienyl)-1-isopropyl-1H-pyrazole-5-carboxamide], the inhibition constant (Ki) is 7.43 nM. As to `CCNC(=O)c1c(C)c(-c2ccc(C#N)cc2)nn1C1CCOC1` (racemic) [Example 76, 3-(4-Cyanophenyl)-N-ethyl-4-methyl-1-(tetrahydrofuran-3-yl)-1H-pyrazole-5-carboxamide], the inhibition constant (Ki) is 26.9 nM. Consider `Cc1c(-c2ccc(C#N)cc2)nn(C2CCOC2)c1C(=O)NC(C)C` (racemic) [Example 77, 3-(4-Cyanophenyl)-N-isopropyl-4-methyl-1-(tetrahydrofuran-3-yl)-1H-pyrazole-5-carboxamide], for which the Ki is 28.2 nM. As to `Cc1c(-c2ccc(C#N)cc2)nn(C2CCOC2)c1C(=O)NCC(C)(C)O` (racemic) [Example 80, 3-(4-Cyanophenyl)-N-(2-hydroxy-2-methylpropyl)-4-methyl-1-(tetrahydrofuran-3-yl)-1H-pyrazole-5-carboxamide], the inhibitory constant (Ki) is 138 nM. To `CCc1c(-c2ccc(C#N)cc2)nn(C(C)CC)c1C(=O)NCC1CC1` (racemic) [Example 101, (+/−)-1-sec-Butyl-3-(4-cyanophenyl)-N-(cyclopropylmethyl)-4-ethyl-1H-pyrazole-5-carboxamide] belongs 7.67 nM. To `CCc1c(-c2ccc(C#N)cc2)nn(C(C)CC)c1C(=O)NC(C)C` (racemic) [Example 102, (+/−)-1-sec-Butyl-3-(4-cyanophenyl)-4-ethyl-N-isopropyl-1H-pyrazole-5-carboxamide] belongs 14.7 nM; to `CCNC(=O)c1c(CC)c(-c2ccc(C#N)cc2)nn1C(C)CC` (racemic) [Example 103, (+/−)-1-sec-Butyl-3-(4-cyanophenyl)-N,4-diethyl-1H-pyrazole-5-carboxamide], 12.7 nM. Turning to `CCc1c(-c2ccc(C#N)cc2)nn(C(C)CC)c1C(=O)NC1CC1` (racemic) [Example 104, (+/−)-1-sec-Butyl-3-(4-cyanophenyl)-N-cyclopropyl-4-ethyl-1H-pyrazole-5-carboxamide], the Ki is 17.8 nM.

Consider `CCc1c(-c2ccc(C#N)cc2)nn(C(C)CC)c1C(=O)NC` (racemic) [Example 105, (+/−)-1-sec-Butyl-3-(4-cyanophenyl)-4-ethyl-N-methyl-1H-pyrazole-5-carboxamide], for which the Ki was 14.2 nM. For `CCc1c(-c2ccc(C#N)cc2)nn(C(C)CC)c1C(=O)NCC(C)(C)O` (racemic) [Example 106, 1-sec-Butyl-3-(4-cyanophenyl)-4-ethyl-N-(2-hydroxy-2-methylpropyl)-1H-pyrazole-5-carboxamide], the Ki is 23.8 nM. To `CCc1c(-c2ccc(C#N)cc2)nn(C(C)CC)c1C(=O)NCC(=O)NC` (racemic) [Example 109, 1-sec-Butyl-3-(4-cyanophenyl)-4-ethyl-N-[2-(methylamino)-2-oxoethyl]-1H-pyrazole-5-carboxamide] belongs 199 nM; to `CCNC(=O)c1c(C)c(-c2ccc(C#N)cc2)nn1C1CCOC1` (single isomer, unassigned) [Example 76 Ent 1, 3-(4-Cyanophenyl)-N-ethyl-4-methyl-1-(tetrahydrofuran-3-yl)-1H-pyrazole-5-carboxamide], 22.3 nM; to `CCNC(=O)c1c(C)c(-c2ccc(C#N)cc2)nn1C1CCOC1` (single isomer, unassigned) [Example 76 Ent 2, 3-(4-Cyanophenyl)-N-ethyl-4-methyl-1-(tetrahydrofuran-3-yl)-1H-pyrazole-5-carboxamide], 147 nM.

These data come from patent US8232269B2, “Amide compounds useful in therapy” (Pfizer Inc., priority 2008, dated 2012).
